Test in all cases: relative viability (nuclei count vs DMSO), 5 days (fraction); higher = more cells survive
Compound in the assay “Metformin + Lapatinib”: CN(C)C(=N)NC(=N)N [Metformin] + CS(=O)(=O)CCNCc1ccc(-c2ccc3ncnc(Nc4ccc(OCc5cccc(F)c5)c(Cl)c4)c3c2)o1 [Lapatinib] (partner 2 µM)
The method in brief: (§1)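 Nuclei were stained with Hoechst during a one-step fixation (final 0.05% Triton X-100, 1% formaldehyde, 1 ug/ml Hoechst) carried out 5 days after dosing, then counted on 4× images. The cells, lung cancer lines in 1536-well plates, had been dosed by pin tool the day after seeding with one drug alone or a fixed anchor-drug dose plus five library-drug doses (not always all listed) in √10 steps. Relative viability is the nuclei count in treated wells divided by that in vehicle wells, and each value is the median of duplicate plates.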

Compound in the assay “Metformin + Linsitinib”: CN(C)C(=N)NC(=N)N [Metformin] + C[C@]1(O)C[C@@H](c2nc(-c3ccc4ccc(-c5ccccc5)nc4c3)c3c(N)nccn32)C1 [Linsitinib] (partner 1 µM)
The method in brief:
as §1

Compound in the assay “Metformin + Phenformin”: CN(C)C(=N)NC(=N)N [Metformin] + N=C(N)NC(=N)NCCc1ccccc1 [Phenformin] (partner 250 µM)
A digest of the protocol: as §1

Compound in the assay “Apatinib + Luminespib”: N#CC1(c2ccc(NC(=O)c3cccnc3NCc3ccncc3)cc2)CCCC1 [Apatinib] + CCNC(=O)c1noc(-c2cc(C(C)C)c(O)cc2O)c1-c1ccc(CN2CCOCC2)cc1 [Luminespib] (partner 0.01 µM)
The method in brief:
as §1

Take NCI-H460: the relative viability with Metformin + Lapatinib (first compound 31.62 µM) amounted to 1.15; with Metformin + Lapatinib (first compound 100 µM), 0.9; with Metformin + Lapatinib (first compound 316.23 µM), 0.849; with Metformin + Lapatinib (first compound 1000 µM), 1.02; in the assay with Metformin + Linsitinib (first compound 31.62 µM), 0.772; in the assay with Metformin + Linsitinib (first compound 100 µM), 0.774. Also, the relative viability was determined as 0.662 with Metformin + Linsitinib (first compound 316.23 µM); 0.843 with Metformin + Linsitinib (first compound 1000 µM); 0.426 in the assay with Metformin + Phenformin (first compound 10 µM); 0.541 in the assay with Metformin + Phenformin (first compound 31.62 µM); 0.516 with Metformin + Phenformin (first compound 100 µM); 0.509 with Metformin + Phenformin (first compound 316.23 µM). The relative viability in the assay with Metformin + Phenformin (first compound 1000 µM) was determined as 0.523; with Apatinib + Luminespib (first compound 0.08 µM) it was 0.0389; with Apatinib + Luminespib (first compound 0.253 µM) it was 0.0355; with Apatinib + Luminespib (first compound 0.8 µM), 0.0311; with Apatinib + Luminespib (first compound 2.53 µM), 0.0328; with Apatinib + Luminespib (first compound 8 µM), 0.0337.

The record behind these values is the supplement of paper PMC10307832.
